This experiment concerns Ba/F3 ETV6-NTRK3 cells. Nature of the experiment: Proliferation of Ba/F3 ETV6-NTRK3 cells (CellTiter-Glo). The format is cell-based. The conditions noted are these: Mus musculus, BaF3; Table 3; 72 hours. An excerpt: Ba/F3 ETV6-NTRK3 is a stable transgenic cell line constructed by KYinno Biotechnology Co., Ltd. on mouse primary B cell Ba/F3 wherein NTRK3 is highly expressed and fused with ETV6 to form ETV6-NTRK3. • [Test method]: Promega's CellTiter-Glo® Luminescent Cell Viability Assay kit was used to evaluate the inhibitory activity of the compounds on the proliferation of Ba/F3 ETV6-NTRK3 cells. • [Instrument]: Spectramax M3 multifunctional microplate reader from Molecular Devices. • [Test materials]: Ba/F3 ETV6-NTRK3 cell line (constructed by KYinno Biotechnology Co., Ltd. (Beijing)), 96-well transparent flat-bottomed black-walled cell culture plate (Corning, cat #3603), RPMI-1640 media (GE, cat #SH30027.01), fetal bovine serum FBS (Thermo Fisher, cat #10099-141), CellTiter-Glo® Luminescent Cell Viability Assay kit (Promega, cat #G7572), PBS (Solarbio, cat #P1020), DMSO (Sigma, cat #D2650). • [Experimental procedure]: When resuscitating Ba/F3 ETV6-NTRK3 cells, the freezing tube was quickly shaken in a 37° C. water bath to melt within 1 minute. The thawed cell suspension was mixed uniformly with RPMI1640 medium containing 10% FBS, centrifuged at 1000 rpm for 5 minutes, and the supernatant discarded. 5 mL of complete medium (RPMI1640 medium with 10% FBS) was taken to resuspend the cell pellets, charged into a cell culture flask with a bottom area of 25 cm^2, and incubated in a cell incubator at 37° C., 95% humidity and 5% CO2. Cells were allowed to passage when the number of cells reached about 10^6 cells/mL. For cell passage, the old cell suspension was directly pipetted evenly, 1/5 of the cell suspension was kept, 4 mL of new complete medium was added, after pipetting evenly, the cell flask was placed in the cell incubator for further culturing. Cell plating was performed when the number of cells reached about 10^6 cells/mL again. For cell plating, 1/5 of the cell suspension was kept for further culturing as in the cell passage method, and the remaining 4/5 of the cell suspension was placed in a 15 mL centrifuge tube, detected for cell viability by Trypan blue exclusion method to ensure that cell viability was above 90%. A cell suspension with a density of 5.56×10^4 viable cells/mL was prepared with complete medium, and 90 μL of such cell suspension was added to a 96-well cell culture plate to obtain the cell density of 5000 viable cells/mL in the cell culture plate. A control group containing no cells, no compound and only complete medium (i.e. culture medium control) and a control group containing no compound but containing cells (i.e. cell control) were set. The cell plate was placed in a cell incubator overnight. The 10 mM compound stock solution in DMSO was first serially diluted with DMSO at a dilution factor of 3.16 times, to obtain 9 concentrations, and the 10th concentration was set as DMSO control without compound. Then, PBS was used to dilute the DMSO solutions of compounds of different concentrations, at a dilution factor of 100 times, so that the DMSO concentration in the compound solution of each concentration was 1%. Finally, 10 μL of each of the above solutions was added to the corresponding cell culture plate, so that the initial compound concentration was 10 μM, with the remaining concentrations being successively diluted at a dilution factor of 3.16 times, and the DMSO content in the cell culture plate was 0.1%. The cell plate was placed in a cell incubator and cultured for 72 hours. For endpoint detection, the CellTiter-Glo reagent was melted, and the cell plate was moved to room temperature to equilibrate for 30 minutes, added with 100 μL of CellTiter-Glo for each well, and shaken on an orbital shaker for 5 minutes to fully lyse the cells. The plate was kept at room temperature for 20 minutes to stabilize the luminescence signal, and the luminescence value of each well was scanned with a multi-functional microplate reader at full wavelength. • [Test samples]

On to `Cn1ncc2cc(Oc3ccc(NC(=O)c4ccc(C(F)(F)F)n(-c5ccc(F)cc5)c4=O)cc3F)c(-c3cn[nH]c3)cc21` [Example 1, N-(3-fluoro-4-(1-methyl-6-(1H-pyrazol-4-yl)-1H-indazol-5-yloxy)phenyl)-1-(4-fluorophenyl)-6-trifluoromethyl-2-oxo-1,2-dihydmpyridine-3-carboxamide monomethanesulfonate], for which 435 nM corresponded to half-maximal inhibition (IC50).
As for `Cn1ncc2cc(Oc3ccc(NC(=O)c4ccc(C5CC5)n(-c5ccc(F)cc5)c4=O)cc3F)c(-c3cn[nH]c3)cc21` [Example 2, N-(3-fluoro-4-(1-methyl-6-(1H-pyrazol-4-yl)-1H-indazol-5-yloxy)phenyl)-1-(4-fluorophenyl)-6-cyclopropyl-2-oxo-1,2-dihydmpyridine-3-carboxamide], the figure is 94 nM; as for `CCn1ncc2cc(Oc3ccc(NC(=O)c4ccc(C)n(-c5ccc(F)cc5)c4=O)cc3F)c(-c3cn[nH]c3)cc21` [Example 3, N-(3-fluoro-4-(1-ethyl-6-(1H-pyrazol-4-yl)-1H-indazol-5-yloxy)phenyl)-1-(4-fluorophenyl)-6-methyl-2-oxo-1,2-dihydmpyridine-3-carboxamide], 663 nM; as for `Cc1ccc(C(=O)Nc2ccc(Oc3cc4cnn(C(C)C)c4cc3-c3cn[nH]c3)c(F)c2)c(=O)n1-c1ccc(F)cc1` [Example 4, N-(3-fluoro-4-(1-isopropyl-6-(1H-pyrazol-4-yl)-1H-indazol-5-yloxy)phenyl)-1-(4-fluorophenyl)-6-methyl-2-oxo-1,2-dihydmpyridine-3-carboxamide], 762 nM.
As for `CCc1ccc(C(=O)Nc2ccc(Oc3cc4cnn(C)c4cc3-c3cn[nH]c3)c(F)c2)c(=O)n1-c1ccc(F)cc1` [Example 5, N-(3-fluoro-4-(1-methyl-6-(1H-pyrazol-4-yl)-1H-indazol-5-yloxy)phenyl)-1-(4-fluorophenyl)-6-ethyl-2-oxo-1,2-dihydropyridine-3-carboxamide], the figure is 60 nM; as for `CC(C)c1ccc(C(=O)Nc2ccc(Oc3cc4cnn(C)c4cc3-c3cn[nH]c3)c(F)c2)c(=O)n1-c1ccc(F)cc1` [Example 6, N-(3-fluoro-4-(1-methyl-6-(1H-pyrazol-4-yl)-1H-indazol-5-yloxy)phenyl)-1-(4-fluorophenyl)-6-isopropyl-2-oxo-1,2-dihydropyridine-3-carboxamide], 284 nM.
With `O=C(Nc1cnn2ccc(N3CCC[C@@H]3c3cc(F)ccc3F)nc12)N1CC[C@H](O)C1` [LOXO-101, Larotrectinib, reference compound] the figure was 5 nM; with `Cc1ccc(C(=O)Nc2ccc(Oc3cc4cnn(C)c4cc3-c3cn[nH]c3)c(F)c2)c(=O)n1-c1ccc(F)cc1` [Merestinib, reference compound], 684 nM.

For the origin of these results see US11952364B2, “TRK inhibitors useful as anticancer drugs” (TYLIGAND BIOSCIENCE (SHANGHAI) LIMITED, priority 2018, dated 2024).
